Experimental data as given in ChEMBL document CHEMBL1201862, “PubChem BioAssay data set” (2004).
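Cells were grown in 96-well plates and exposed to each compound for 48 hours at five concentrations; endpoints were interpolated linearly between bracketing concentrations, or set to the highest concentration if not reached. Here, GI50 denotes the concentration required for 50% inhibition of growth.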 Active and inactive are the calls of the source. Rule as the data show it: active = GI50 up to about 1.1 µM and inactive = higher.

Assays:
Test in all cases: NCI-60 cell line screen, 48 h
[1] = system: ACHN
[2] = system: Hs-578T
[3] = system: COLO 205
[4] = system: SF-268
[5] = system: MCF7
[6] = system: BT-549
[7] = system: NCI/ADR-RES
[8] = system: SW-620
[9] = system: A498
[10] = system: SK-OV-3
[11] = system: SF-295
[12] = system: NCI-H460
[13] = system: UACC-62
[14] = system: CCRF-CEM
[15] = system: UO-31
[16] = system: OVCAR-4
[17] = system: T47D
[18] = system: LOX IMVI
[19] = system: NCI-H522
[20] = system: K562

Measured: GI50

COc1ccc(-c2nc(O)c3ccccc3n2)c(OC)c1
inactive: [1] > 100 µM | [2] > 100 µM | [3] > 100 µM | [4] > 100 µM | [5] > 100 µM | [6] > 100 µM | [7] > 100 µM | [8] > 100 µM | [9] > 100 µM | [10] > 100 µM | [11] > 100 µM | [12] > 100 µM | [13] > 100 µM | [14] > 100 µM | [15] > 100 µM | [16] > 100 µM | [17] > 100 µM

C[C@]12O[C@@]3(C)O[C@@]3(C)[C@]3(C)O[C@]3(C)[C@@]1(C)O2
inactive: [1] > 100 µM | [2] > 100 µM | [3] > 100 µM | [4] > 100 µM | [5] > 100 µM | [6] > 100 µM | [7] > 100 µM | [18] > 100 µM | [9] > 100 µM | [10] > 100 µM | [11] > 100 µM | [13] > 100 µM | [19] > 100 µM | [15] > 100 µM | [16] > 100 µM | [20] > 100 µM | [17] 1.22 µM

CCCNC(=O)Cn1c(-c2ccccc2)cc2ccccc21
inactive: [1] 71.8 µM | [2] 31.8 µM | [3] > 100 µM | [4] 92 µM | [5] 37.5 µM | [6] > 100 µM | [7] 42.4 µM | [18] > 100 µM | [8] > 100 µM | [10] 29.4 µM | [11] 88.7 µM | [12] 92.3 µM | [13] 26.4 µM | [14] > 100 µM | [19] 23.7 µM | [15] > 100 µM | [16] 24.4 µM | [20] > 100 µM | [17] 24.2 µM

O=[N+]([O-])C(/C(Cl)=C(/Cl)N1CCCCC1)=C1\NCCO1
inactive: [1] > 100 µM | [2] > 100 µM | [3] > 100 µM | [4] > 100 µM | [5] > 100 µM | [6] > 100 µM | [7] > 100 µM | [8] > 100 µM | [9] > 100 µM | [10] > 100 µM | [11] > 100 µM | [12] > 100 µM | [13] > 100 µM | [14] > 100 µM | [15] > 100 µM | [16] > 100 µM | [17] > 100 µM

Cc1ccc2nc(-c3nccn3C)cc(C(=O)NC(C)CN(C)C)c2c1 (stereo not given)
inactive: [1] 60 µM | [2] > 100 µM | [3] > 100 µM | [4] > 100 µM | [5] 63 µM | [6] > 100 µM | [7] > 100 µM | [18] 91.2 µM | [8] > 100 µM | [9] > 100 µM | [12] 24.9 µM | [13] > 100 µM | [15] 92.7 µM | [17] > 100 µM

[O-][S+](CC1(O)CCCCC1)c1ccccc1 (stereo not given)
inactive: [1] > 100 µM | [2] > 100 µM | [3] > 100 µM | [4] > 100 µM | [5] > 100 µM | [6] > 100 µM | [7] > 100 µM | [18] > 100 µM | [8] > 100 µM | [10] > 100 µM | [11] > 100 µM | [12] > 100 µM | [13] > 100 µM | [14] > 100 µM | [19] > 100 µM | [15] > 100 µM | [16] > 100 µM | [20] > 100 µM | [17] > 100 µM

CCC1(CC)C(=O)N(C(=O)c2ccccc2)N(C(=O)c2ccc(Cl)cc2)C1=O
inactive: [1] > 75 µM | [2] > 75 µM | [3] > 75 µM | [4] > 75 µM | [5] > 75 µM | [6] > 75 µM | [7] > 75 µM | [18] 3.35 µM | [8] 36.2 µM | [10] > 75 µM | [11] > 75 µM | [12] 36.6 µM | [13] > 75 µM | [14] 12.7 µM | [19] 25.4 µM | [15] > 75 µM | [16] > 75 µM | [20] 32.9 µM | [17] > 75 µM

COc1ccc(-c2[nH]c(-c3ccc(OC)cc3)c(-c3ccccn3)c2-c2ccccn2)cc1
inactive: [1] 74 µM | [2] > 100 µM | [3] 26 µM | [4] > 100 µM | [5] 42.7 µM | [6] 36.2 µM | [7] 39.5 µM | [18] 24 µM | [8] 36 µM | [9] 82 µM | [10] > 100 µM | [11] 38.2 µM | [12] 31.8 µM | [13] 34.3 µM | [14] 35.2 µM | [15] 33.7 µM | [20] 25.5 µM | [17] 31.5 µM

CC(=O)OCC1OC(Nc2ccc3nc(C)n(-c4cccc(C)c4)c(=O)c3c2)C(OC(C)=O)C(OC(C)=O)C1OC(C)=O (stereo not given)
inactive: [1] > 62.5 µM | [2] > 62.5 µM | [3] > 62.5 µM | [4] > 62.5 µM | [5] > 62.5 µM | [6] > 62.5 µM | [7] > 62.5 µM | [18] > 62.5 µM | [8] > 62.5 µM | [9] > 62.5 µM | [11] > 62.5 µM | [12] > 62.5 µM | [13] > 62.5 µM | [19] > 62.5 µM | [15] > 62.5 µM | [16] > 62.5 µM | [20] > 62.5 µM | [17] > 62.5 µM

C=CCOc1ccc(C(=N/NC(=O)c2ccccc2)/N=N/c2ccc([N+](=O)[O-])cc2)cc1OC
inactive: [1] > 100 µM | [2] > 100 µM | [3] > 100 µM | [4] > 100 µM | [5] > 100 µM | [6] > 100 µM | [7] > 100 µM | [18] 82.6 µM | [8] > 100 µM | [9] > 100 µM | [11] > 100 µM | [12] 64.1 µM | [13] > 100 µM | [14] > 100 µM | [19] > 100 µM | [15] > 100 µM | [16] > 100 µM | [17] 29 µM

COc1ccc(OC)c([N+](=O)[O-])c1-c1nc2sc(C)c(C)n2c1/C=N/N=C(N)N
inactive: [1] > 100 µM | [2] 48.3 µM | [3] 29.9 µM | [4] 45.6 µM | [5] 24 µM | [6] 25.9 µM | [7] > 100 µM | [18] 49 µM | [8] 66.4 µM | [9] > 100 µM | [11] 84.1 µM | [12] 91.6 µM | [13] 45.7 µM | [14] 50.7 µM | [19] 41.8 µM | [15] > 100 µM | [16] 95.7 µM | [20] 33.3 µM | [17] 23.4 µM
